Legend:
β5c of hu c-20S = β5c of hu c-20S (Homo sapiens (Human), UniProt P20618+P28074); assay: IC50 determination against β5c of human constitutive proteasome (suc-LLVY-AMC hydrolysis); type: biochemical; settings: 0.2 nM c-20S, 25 μM suc-LLVY-AMC;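 further: IC50 obtained by fitting initial reaction velocities to a dose-dependent inhibition model, with SDS present as proteasome activator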
β5i of hu i-20S = β5i of hu i-20S (Homo sapiens (Human), UniProt P20618+P28062); assay: IC50 determination against β5i of human immunoproteasome (Ac-ANW-AMC hydrolysis); type: biochemical; settings: for IC50: β5i, 0.4 nM i-20S, 15 μM Ac-ANW-AMC;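 on all read-outs here: enzyme activity taken as the initial reaction velocity per well, with SDS added to activate the proteasome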

SMILES | IC50 (β5c of hu c-20S) [µM] | IC50 (β5i of hu i-20S) [µM] | % @ […], hu i-20S (β5i of hu i-20S; compound at […]) [% @ 33.3 μM]
O=C1CCc2cccc(c2)Oc2ccc(cc2)C[C@@H](C(=O)NCc2ccccc2F)NC(=O)[C@H](CC(=O)N2CCCC2)N1 [Compound 2-01-B, (5S,8S)—N-(2-Fluorobenzyl)-7,10-dioxo-8-(2-oxo-2-(pyrrolidin-1-yl)ethyl)-2-oxa-6,9-diaza-1(1,3),3(1,4)-dibenzenacyclododecaphane-5-carboxamide] | 75.4 | 0.845 | 
Cc1ccc(CNC(=O)[C@@H]2Cc3cccc(c3)Oc3cccc(c3)C[C@H](NC(=O)OC(C)(C)C)C(=O)N[C@@H](CCc3ccccc3)C(=O)N2)cc1 [Compound 1-68, tert-Butyl-((5S,8S,11S)-5-((4-methylbenzyl)carbamoyl)-7,10-dioxo-8-phenethyl-2-oxa-6,9-diaza-1,3(1,3)-dibenzenacyclododecaphane-11-yl)carbamate] | 17.9 | > 100 | 
O=C(N[C@H]1Cc2cccc(c2)Oc2cccc(c2)C[C@@H](C(=O)NCC(F)(F)F)NC(=O)[C@H](CCc2ccccc2)NC1=O)C1CC1 [Compound 1-54, (5S,8S,11S)-11-(Cyclopropanecarboxamido)-7,10-dioxo-8-phenethyl-N-(2,2,2-trifluoroethyl)-2-oxa-6,9-diaza-1,3(1,3)-dibenzenacyclododecaphane-5-carboxamide] | > 100 | > 100 | 
CCN(CC)[C@H]1Cc2cccc(c2)Oc2cccc(c2)C[C@@H](C(=O)NCc2ccccc2)NC(=O)[C@H](CCc2ccccc2)NC1=O [Compound 1-16] | 22.9 | 100 | 
O=C1CCCCCCCCOC[C@@H](C(=O)NCc2ccccc2F)NC(=O)[C@H](CC(=O)N2CCC[C@@H]2c2ccccc2)N1 [Compound 4-16] | 4.12 | 51.3 | 
Cn1cc(CNC(=O)[C@@H]2Cc3cccc(c3)Oc3cccc(c3)C[C@H](NS(C)(=O)=O)C(=O)N[C@@H](CCc3ccccc3)C(=O)N2)cn1 [Compound 1-04, (5S,8S,11S)—N-((1-Methyl-1H-pyrazol-4-yl)methyl)-11-(methylsulfonamido)-7,10-dioxo-8-phenethyl-2-oxa-6,9-diaza-1,3(1,3)-dibenzenacyclododecaphane-5-carboxamide] | > 100 | 7.22 | 
O=C(NC1CCCC1)[C@@H]1Cc2cccc(c2)Oc2cccc(c2)C[C@H](N2CCCS2(=O)=O)C(=O)N[C@@H](CCN2CCOCC2)C(=O)N1 [Compound 1-88, (5S,8S,11S)—N-Cyclopentyl-11-(1,1-dioxidoisothiazolidin-2-yl)-8-(2-morpholinoethyl)-7,10-dioxo-2-oxa-6,9-diaza-1,3(1,3)-dibenzenacyclododecaphane-5-carboxamide] |  |  | 15
O=C1CCc2cccc(c2)Oc2cccc(c2)C[C@@H](C(=O)NC2CCCC2)NC(=O)[C@H](CCN2CCOCC2)N1 [Compound 1-89, (5S,8S)—N-Cyclopentyl-8-(2-morpholinoethyl)-7,10-dioxo-2-oxa-6,9-diaza-1,3(1,3)-dibenzenacyclododecaphane-5-carboxamide] |  | > 100 | 
CCN(CC)[C@H]1Cc2cccc(c2)Oc2cccc(c2)C[C@@H](C(=O)NC(C)C)NC(=O)[C@H](CCc2ccccc2)NC1=O [Compound 1-25] | 1.63 |  | 
COCCC(=O)N[C@H]1Cc2cccc(c2)Oc2cccc(c2)C[C@@H](C(=O)NCCC(F)(F)F)NC(=O)[C@H](CCc2ccccc2)NC1=O [Compound 1-45] | 7.7 |  | 
CCN(CC)[C@H]1Cc2cccc(c2)Oc2cccc(c2)C[C@@H](C(=O)NCC(C)C)NC(=O)[C@H](CCc2ccccc2)NC1=O [Compound 1-29] | 2.2 |  | 
O=C(N[C@H]1Cc2cccc(c2)Oc2cccc(c2)C[C@@H](C(=O)N2CCCC2)NC(=O)[C@H](CCc2ccccc2)NC1=O)C1COC1 [Compound 1-44] | 7.52 |  | 
CCNC(=O)[C@@H]1Cc2cccc(c2)Oc2cccc(c2)C[C@H](N2CCCCC2)C(=O)N[C@@H](CCc2ccccc2)C(=O)N1 [Compound 1-28] | 2.47 |  | 
COCCC(=O)N[C@H]1Cc2cccc(c2)Oc2cccc(c2)C[C@@H](C(=O)NCc2cccnc2)NC(=O)[C@H](CCc2ccccc2)NC1=O [Compound 1-33] | 2.25 |  | 
CCN(CC)[C@H]1Cc2cccc(c2)Oc2cccc(c2)C[C@@H](C(=O)NC2CCCC2)NC(=O)[C@H](CCc2ccccc2)NC1=O [Compound 1-22] | 41.6 |  | 
O=C(N[C@H]1Cc2cccc(c2)Oc2cccc(c2)C[C@@H](C(=O)NCc2ccccc2)NC(=O)[C@H](CCc2ccccc2)NC1=O)c1ccccc1 [Compound 1-15] | 100 |  | 
CCC(=O)N[C@H]1Cc2cccc(c2)Oc2cccc(c2)C[C@@H](c2nc3ccccc3o2)NC(=O)[C@H](CCc2ccccc2)NC1=O [Compound 1-42] | 5.93 |  | 
COCCNC(=O)[C@@H]1Cc2cccc(c2)Oc2cccc(c2)C[C@H](NC(=O)c2cccnc2)C(=O)N[C@@H](CCc2ccccc2)C(=O)N1 [Compound 1-34] | 2.85 |  | 
CCC(=O)N[C@H]1Cc2cccc(c2)Oc2cccc(c2)C[C@@H](C(=O)NC2CCCC2)NC(=O)[C@H](CCc2ccccc2)NC1=O [Compound 1-19] | 2.8 |  | 
CC(C)CNC(=O)[C@@H]1Cc2cccc(c2)Oc2cccc(c2)C[C@H](NC(=O)c2ccccc2)C(=O)N[C@@H](CCc2ccccc2)C(=O)N1 [Compound 1-31] | 5 |  | 
CN(C)CCC(=O)N[C@H]1Cc2cccc(c2)Oc2cccc(c2)C[C@@H](C(=O)NCC2CCCCN2C)NC(=O)[C@H](CCc2ccccc2)NC1=O (stereo partly drawn) [Compound 1-39] | 4.57 |  | 

SMILES | IC50 (β5c of hu c-20S) [µM] | IC50 (β5i of hu i-20S) [µM] | % @ […], hu i-20S (β5i of hu i-20S; compound at […]) [% @ 33.3 μM]
O=C(N[C@H]1Cc2cccc(c2)Oc2cccc(c2)C[C@@H](C(=O)NCC2CCOCC2)NC(=O)[C@H](CCc2ccccc2)NC1=O)c1cccnn1 [Compound 1-49] | 11.9 |  | 
CS(=O)(=O)N[C@H]1Cc2cccc(c2)Oc2cccc(c2)C[C@@H](C(N)=O)NC(=O)[C@H](CCc2ccccc2)NC1=O [Compound 1-35] | 3 |  | 
CN1C(=O)[C@H](CCN2CCOCC2)NC(=O)[C@@H](N2CCCC2=O)Cc2cccc(c2)Oc2cccc(c2)C[C@H]1C(=O)NCC(F)(F)F [Compound 1-86, (5S,8S,11S)-6-Methyl-8-(2-morpholinoethyl)-7,10-dioxo-11-(2-oxopyrrolidin-1-yl)-N-(2,2,2-trifluoroethyl)-2-oxa-6,9-diaza-1,3(1,3)-dibenzenacyclododecaphane-5-carboxamide] |  | 61 | 
CC1CCCN1[C@H]1Cc2cccc(c2)Oc2cccc(c2)C[C@@H](C(=O)NCc2ccccc2)NC(=O)[C@H](CCc2ccccc2)NC1=O (stereo partly drawn) [Compound 1-10] | 1.3 |  | 
CN1C(=O)[C@H](CCc2ccccc2)NC(=O)[C@@H](N2CCCC2=O)Cc2cccc(c2)OCCCC[C@H]1C(=O)NCC(F)(F)F [Compound 3-33] | 25.8 |  | 
O=C(NCC1CC1)[C@@H]1CCCCOc2cccc(c2)C[C@H](N2CCCC2=O)C(=O)N[C@@H](CCN2CCOCC2)C(=O)N1 [Compound 3-17, (7S,10S,13S)—N-(Cyclopropylmethyl)-10-(2-morpholinoethyl)-9,12-dioxo-13-(2-oxopyrrolidin-1-yl)-2-oxa-8,11-diaza-1(1,3)-benzenacyclotetradecaphane-7-carboxamide] | 17.9 |  | 
CCC(=O)N[C@H]1Cc2cccc(c2)Oc2cccc(c2)C[C@@H](C(=O)NCc2ccccn2)NC(=O)[C@H](CCc2ccccc2)NC1=O [Compound 1-48] | 10.2 |  | 
O=C1N[C@@H](CC(=O)N2CCCC2)C(=O)N[C@H](C(=O)NCc2cccc3ccccc23)CCCCCCCCCC1Cc1ccccc1 (stereo in doubt) [Compound 4-04, (2S,5S,15S)-15-Benzyl-N-(naphthalen-1-ylmethyl)-3,16-dioxo-2-(2-oxo-2-(pyrrolidin-1-yl)ethyl)-1,4-diazacyclohexadecane-5-carboxamide] |  | 61.3 | 
O=C(NC1CCCC1)[C@@H]1Cc2cccc(c2)Oc2cccc(c2)C[C@H](N2CCCC2)C(=O)N[C@@H](CCc2ccccc2)C(=O)N1 [Compound 1-18] | 0.572 |  | 
Cn1cnc(C(=O)N[C@H]2Cc3cccc(c3)Oc3cccc(c3)C[C@@H](C(=O)NCc3ccccc3)NC(=O)[C@H](CCc3ccccc3)NC2=O)c1 [Compound 1-13] | 3.52 |  | 
O=C(N[C@H]1Cc2cccc(c2)Oc2cccc(c2)C[C@@H](C(=O)NCCC(F)(F)F)NC(=O)[C@H](CCc2ccccc2)NC1=O)c1ccccc1 [Compound 1-41] | 5.7 |  | 
O=C1CCc2cccc(c2)Oc2cccc(c2)C[C@@H](C(=O)NCc2ccccc2F)NC(=O)[C@H](CCN2CCOCC2)N1 [Compound 1-91] | 0.47 |  | 
CS(=O)(=O)N[C@H]1Cc2cccc(c2)Oc2cccc(c2)C[C@@H](C(=O)NCC2CC2)NC(=O)[C@H](CCc2ccccc2)NC1=O [Compound 1-08] | 1.78 |  | 
CC(C)CNC(=O)[C@@H]1Cc2cccc(c2)Oc2cccc(c2)C[C@H](NC(=O)c2cn(C)cn2)C(=O)N[C@@H](CCc2ccccc2)C(=O)N1 [Compound 1-32] | 8.86 |  | 
CCC(=O)N[C@H]1Cc2cccc(c2)Oc2cccc(c2)C[C@@H](C(=O)NCC(C)C)NC(=O)[C@H](CCc2ccccc2)NC1=O [Compound 1-30] | 4.21 |  | 
O=C(NC[C@H]1CCCO1)[C@@H]1CCCCOc2cccc(c2)C[C@H](N2CCCC2=O)C(=O)N[C@@H](CCc2ccc(F)cc2)C(=O)N1 [Compound 3-30] | 85.3 |  | 
O=C1N[C@H](CO)CCCCOc2cccc(c2)C[C@H](N2CCCC2=O)C(=O)N[C@H]1CCc1ccccc1 [Compound 3-06, (7S,10S,13S)-7-(Hydroxymethyl)-13-(2-oxopyrrolidin-1-yl)-10-phenethyl-2-oxa-8,11-diaza-1(1,3)-benzenacyclotetradecaphane-9,12-dione] |  | 68 | 
O=C(N[C@H]1Cc2cccc(c2)Oc2cccc(c2)C[C@@H](C(=O)NC2CCCC2)NC(=O)[C@H](CCc2ccccc2)NC1=O)c1ccccc1 [Compound 1-23] | 6.21 |  | 
CCN(CC)C(=O)[C@@H]1Cc2cccc(c2)Oc2cccc(c2)C[C@H](NC(=O)c2ccncc2)C(=O)N[C@@H](CCc2ccccc2)C(=O)N1 [Compound 1-36] | 3.04 |  | 
O=C(N[C@H]1Cc2cccc(c2)Oc2cccc(c2)C[C@@H](C(=O)NCc2ccccc2)NC(=O)[C@H](CCc2ccccc2)NC1=O)c1ccccn1 [Compound 1-12] | 3.2 |  | 
CCC(=O)N[C@H]1Cc2cccc(c2)Oc2cccc(c2)C[C@@H](C(=O)NCc2ccccc2)NC(=O)[C@H](CCc2ccccc2)NC1=O [Compound 1-14] | 4.01 |  | 

Source: patent US20240043470A1, “MACROCYCLIC COMPOUNDS AS PROTEASOME INHIBITORS” (CORNELL UNIVERSITY, priority 2017, published 2024)
